In patent US20180133211A1, “METHODS AND MATERIALS FOR PROMOTING BONE FORMATION” (Mayo Foundation for Medical Education and Research, priority 2015, published 2018):

Tests used:
Format in all cases: cell-based, mouse
[1] = tested on: MLO-Y4 cells; assay: Global cytosine 5-hydroxymethylation (5hmC); settings: MLO-Y4, 3 μM, 16 hours
Method: (§1) Cells were fixed with 4% paraformaldehyde in PBS for 20 minutes at room temperature and permeabilized with 0.2% triton in 4% paraformaldehyde in PBS. Thereafter, cell layers were blocked for 20 minutes with 10% blocking reagent (Roche) and incubated for one further hour with 0.5 μg/mL anti-5hmC antibody (Abgent). Afterwards, the cells were washed thrice with PBS and incubated for one further hour with an Alexa488 labeled secondary antibody (Invitrogen) diluted 1:300 in blocking buffer. Finally, nuclei were stained with Hoechst 33258 dye (Polysciences).
(§2) For immunostaining, cell slides were mounted with VECTASHIELD® mounting media, and immunofluorescence was visualized on a Leica laser-scanning microscope. No signal was found by using only the Alexa488 labeled secondary antibody (Invitrogen). For quantification of global cytosine 5hmC, the fluorescence in the plates was measured with a multiwell plate reader (Tecan). The amount of DNA (nuclei signal) was estimated using a standard curve prepared from calf thymus DNA (Roche). The signal of the fluorescence of the 5hmC staining was normalized to the amount of DNA. Also, in this case, no signals were found when only the Alexa488 labeled secondary antibody (Invitrogen) was used.

[2] = tested on: RAW 264.7 cells; assay: Global cytosine 5-hydroxymethylation (5hmC); settings: RAW 264.7, 3 μM, 16 hours
Method: as §1, §2

[3] = tested on: MC3T3-E1 cells; assay: Global cytosine 5-hydroxymethylation (5hmC); settings: MC3T3-E1, 3 μM, 16 hours
Method: as §1, §2

[4] = tested on: MLO-Y4 cells; assay: RT-qPCR mRNA expression; settings: MLO-Y4, 3 μM
Method: (§3) Total RNA was extracted using the SV Total RNA Isolation kit (Promega) following the supplier's instructions. cDNA was synthesized from about 0.5 μg RNA using the First Strand cDNA Synthesis kit (Roche) as described by the supplier. The resulting cDNAs were subjected to quantitative PCR amplification with a real-time cycler using the QUANTITECT™ SYBR® Green PCR Kit (Qiagen, Hilden, Germany) for the genes Alpl, Fas, Lox, Tet1, Tet2, and TAQMAN® Gene expression Master Mix (Applied Biosystems, Foster City, Calif., USA) for measuring Runx2, Bglap2, Colla1, Tnfsf11, and 18S rRNA expression (for primers, see Table 1). SYBR-Green RT-qPCR was started with an initial denaturation step at 95° C. for 10 minutes and then continued with 45 cycles consisting of 30 seconds denaturation at 95° C., 30 seconds annealing at primer-specific temperatures, and extension at 72° C. For measurement of the TAQMAN® assays, an initial denaturation at 95° C. for 10 minutes was applied, followed by 45 cycles alternating 60 seconds at 60° C. and 15 seconds at 95° C. All RT-qPCR assays were performed in triplicate, and expression was evaluated using the comparative quantification method (Pfaffl, Nucleic Acids Res., 29:e45 (2001)).

[5] = tested on: RAW 264.7 cells; assay: RT-qPCR mRNA expression; settings: RAW 264.7, 3 μM
Method: as §3

[6] = tested on: MC3T3-E1 cells; assay: RT-qPCR mRNA expression; settings: MC3T3-E1, 3 μM; for mRNA expression of Bglap2, Colla1, Lox and Alpl: 14 days
Method: as §3

[7] = tested on: MC3T3-E1 cells; assay: ECM mineralization by Alizarin Red stain; settings: MC3T3-E1, long-term treatment in osteogenic media
Method: Differentiation of MC3T3-E1 cells was induced with 50 μg/mL ascorbic acid (Sigma-Aldrich) and 5 mM β-glycerophosphate (Sigma-Aldrich) in medium containing 5% FBS. RAW 264.7 cells were cultured in Dulbecco's modified Eagle's medium (DMEM, Invitrogen, Carlsbad, Calif., USA) supplemented with 10% fetal bovine serum (Hyclone) and 2 mM glutamine (Gibco, Carlsbad, Calif., USA). Cells were seeded in culture dishes at a density of 20,000 cells/cm^2 and cultured overnight unless stated otherwise. Before cells were treated with compounds, the culture medium was changed.
Calvariae from 2 to 3-day-old and from 7-week old C57BL/6 mice were dissected aseptically. The calvarial bone explants were cultured in 48-well plates in α-MEM (Biochrom) containing 10% FCS (Biochrom), 50 μg/mL ascorbic acid (Sigma-Aldrich), 5 mM β-glycerophosphate (Sigma-Aldrich), and 10 μg/mL gentamicin (Sigma-Aldrich). The day after dissection, medium was changed, and a part of the explants was treated with 3 μM L- or DL-SFN for 12 days. Thereafter, one part of the calvariae were fixed for 1 hour in 4% para-formaldehyde (PFA), and mineralization was measured by Alizarin Red S stain (Sigma-Aldrich). For this purpose, Alizarin Red S dye was extracted using 10% cetylpyridinium chloride (CPC) in 10 mM sodiumphosphate (pH=7.0) for 45 minutes at room temperature. Alizarin Red S absorbance was measured at 562 nm in a multi-plate reader (Tecan, Maennedorf, Switzerland) and normalized to total protein amount measured by bicinchoninic acid assay (Thermo Fisher Scientific, Waltham, Mass., USA). From the other part of the calvariae, total RNA was extracted.

[8] = tested on: H3K27me3 marks in MC3T3 cells; assay: H3K27me3 ChIPSeq in MC3T3 cells; settings: MC3T3, 5 μM GSK126, 24 hours
Method: MC3T3 (10,000 cells/cm^2) were plated in 10 cm plates in maintenance medium. Two days later, 5 μM GSK126 or vehicle were added to the cells in osteogenic medium. Twenty four hours later, cells were harvested by trypsin, and a chromatin immunoprecipitation assay (ChIP) was performed as described elsewhere (Dudakovic et al., J. Biol. Chem., 288:28783-28791 (2013)) using H3K27Me3 (17-622, Lot 2213948, Millipore) and IgG (PP64B, Lot 2056666A, Millipore) antibodies.
Sequencing libraries were prepared and massively parallel high throughput sequencing was performed on Illumina HiSeq2000 system. The alignment, quality assessment, peak calling, and visualization were performed with the HiChIP analysis pipeline (Yan et al., BMC Bioinformatics, 15:280 (2014)). Briefly, the 50 base-pair reads were aligned to the mm10 reference genome using Burrows-Wheeler Aligner. Duplicates were marked with Picard (http://broadinstitute.github.io/picard), and read-pairs without a unique alignment were filtered out using SAMTools (Li et al., Bioinformatics, 25:2078-2079 (2009)). Duplicates were filtered out using a custom script, and pairs with one or both ends mapped uniquely were retained. Enriched regions were identified using SICER (Zang et al., Bioinformatics, 25:1952-1958 (2009)).

Structure (SMILES)	5hmC levels [1]	increase of global levels of 5hmC [2] [fold]	global 5hmC [3]	mRNA expression for Tet1 or Tet2 [4]	Tnfsf11 mRNA expression ([4]; 3 and 8 days, significant only at 8 days)	Fas mRNA expression ([4]; 8 hours)	Fas mRNA expression ([4]; 16 hours)	Tet1 mRNA levels ([5]; 8 and 16 hours, Tet2 not upregulated)	expression of the pro-apoptotic gene Fas ([5]; 8 hours)	expression of the pro-apoptotic gene Fas ([5]; 16 hours)	Runx2 mRNA expression [6]	Fas mRNA expression ([6]; 8 hours)	Fas mRNA expression ([6]; 16 hours)	mRNA expression of Bglap2, Colla1, Lox and Alpl [6]	ECM mineralization [7]	deposition of H3K27me3 marks near transcriptional start sites (TSSs) across the genome [8]
C[S+]([O-])CCCCN=C=S (racemic) [DL-SFN]	did not elevate	~3	significant global increase	did not positively change	reduced	not affected	significantly increased	upregulated	not at 8 hours	up-regulated	stimulates	not affected	significantly increased	increased	significantly increased	
CC[C@H](C)n1cc(C)c2c(C(=O)NCc3c(C)cc(C)[nH]c3=O)cc(-c3ccc(N4CCNCC4)nc3)cc21 [GSK126, N-[(1,2-dihydro-4,6-dimethyl-2-oxo-3-pyridinyl)methyl]-3-methyl-1-[(1S)-1-methylpropyl]-6-[6-(1-piperazinyl)-3-pyridinyl]-1H-indole-4-carboxamide]																decreased
C[S+]([O-])CCCCN=C=S [L-SFN]	did not elevate	< 2	significant global increase			not affected			not at 8 hours	up-regulated		not affected		increased	significantly increased	
